From US8492348B2, “Methods of increasing cerebral blood flow” (The Board of Trustees of the Leland Stanford Junior …, priority 2005, dated 2013)

Columns and labels:
[1] = tested on: rats subjected to ischemic/reperfusion injury by middle cerebral artery (MCA) occlusion; assay: Cerebral blood flow by laser Doppler flowmetry after single intraperitoneal bolus (Example 1); format: in vivo, Sprague-Dawley rats; details: bolus intraperitoneal delivery
Source text: Male Sprague-Dawley rats (280-320g; n=8) were used for cerebral ischemia and reperfusion, and subsequent monitoring of cerebral blood flow. Tat or δV1-1 peptides were synthesized and conjugated via a Cys S—S bond as described previously (Chen, et al., Proc. Natl. Acad. Sci. USA 25(20):11114-11119 (2001); Inagaki, et al., Circulation 11(108):2304-2307 (2003)). Rats were sacrificed by overdose of isoflurane immediately following procedure
(§1) Ischemia and reperfusion were induced in male Sprague-Dawley rats using an occluding intraluminal suture as described in Maier, et al., J. Neurosurg. 94(1):90-96 (2001). Briefly, an uncoated 30 mm long segment of 3-0 nylon monofilament suture with the tip rounded by a flame was inserted into the stump of the external carotid artery and advanced into the internal carotid artery 19-20 mm from the bifurcation to occlude the ostium of the middle cerebral artery (MCA). Following placement of the suture, the wound was closed and animals were placed back in cages for a period of two hours. Following this period, animals were reanestheized and the suture was withdrawn to allow reperfusion of the brain.
Immediately following reperfusion, the rats were placed in a stereotaxic frame, and a burr hole was drilled through the skull 1 mm posterior and 6 mm lateral to the bregma on the ipsilateral hemisphere corresponding to the ischemic territory. Cerebral blood flow (CBF) was measured via this burr hole using a laser Doppler probe controlled by a micromanipulator (Laserflo BPM403A laser-Doppler flowmeter, Vasamedic, St. Paul, Minn.). The display is digital only, collects eight data points per second, and was set to give a moving average of data every 0.1 sec. (Perez-Pinzon, et al., J. Neurolog. Sci. 153 (1):25-31 (1997); Borlongan, et al., Brain Res. 1010(1-2):108-116 (2004)). CBF readings began at 30 minutes from the onset of reperfusion. Following a period of 20-30 minutes to establish baseline CBF, a δPKC inhibitor, the δV1-1 peptide (which was conjugated to Tat for delivery), was injected by intraperitoneal bolus, and blood flow was monitored for an additional 20-30 minutes.

[2] = tested on: rats subjected to ischemic/reperfusion injury by middle cerebral artery (MCA) occlusion; assay: Transmission electron microscopy of brain tissue, ischemic penumbra, after MCA occlusion (Example 3); format: in vivo, Sprague-Dawley rats; details: for number of vessels per field (patent microvessels): 120 min MCA occlusion, 4 hrs reperfusion, 0.2 mg/kg bolus intraperitoneal at onset of reperfusion, 1200x fields, n=4, FIG. 5
Method: Sprague-Dawley rats underwent 120 minutes MCA occlusion, followed by 4 hrs of reperfusion. Rats were treated with either TAT or δV1-1-TAT peptides at the onset of reperfusion by bolus intraperitoneal injection (0.2 mg/kg in 1 mL, n=4 per group). […] Following the reperfusion period, rats were heavily anesthetized using isoflurane, and underwent transcardial perfusion using 0.7% NaCl/PBS followed by 4% formaldehyde in 0.7% NaCl/PBS.
Brains were removed and kept at 4° C. overnight in 2% formaldehyde/2% glutaraldehyde in 0.1M sodium cacodylate buffer, pH 7.3, Brain sections (˜1 mm^3) were then dissected from the cortical surface, at ˜1 mm anterior/˜6 mm lateral to bregma on the ipsilateral cortex (corresponding to the area measured by laser Doppler flowmetry). Tissue was post-fixed in 1% osmium tetroxide for 1 hr, washed with water, and stained in 1% uranyl acetate solution. Tissue was dehydrated using an ethanol gradient followed by 100% propylene oxide, and infiltrated with Epon and Embed 812 medium, placed in molds, and polymerized overnight at 65° C. before slicing. Sections (75 and 90 nm) were picked up on formvar/Carbon coated Cu grids, stained for 15 seconds in 1:1 Super-saturated uranyl acetate (7.7%) in acetone followed by staining in 0.2% lead citrate for 3 to 4 minutes (all reagents from Electron Microscopy Sciences, PA).
To quantitate number of patent vessels, 10-15 non-overlapping fields (1200× magnification) were photographed from 2-3 slices taken from each animal. Vessels were identified and counted if lumen and endothelial lining was apparent; vessels were confirmed by scanning over these fields at higher magnification. Assessments of vessel count were performed by an observer blinded to treatment group. The number of vessels per field was then averaged for each group of animals (n=4 per group). Statistical differences between groups were analyzed using an unpaired t-test. Higher magnification images (5000-15000×) were taken to assess microvascular morphology.

[3] = tested on: rats subjected to ischemic/reperfusion injury; assay: Cerebral blood flow after repeated intraperitoneal administrations (Example 2); format: in vivo
Source text: as §1
Immediately following reperfusion, the rats were placed in a stereotaxic frame, and a burr hole was drilled through the skull 1 mm posterior and 6 mm lateral to the bregma on the ipsilateral hemisphere corresponding to the ischemic territory. Cerebral blood flow (CBF) was measured via this burr hole using a laser Doppler probe controlled by a micromanipulator (Laserflo BPM403A laser-Doppler flowmeter, Vasamedic, St. Paul, Minn.). The display is digital only, collects eight data points per second, and was set to give a moving average of data every 0.1 sec. […] CBF readings began at 30 minutes from the onset of reperfusion. […]

[4] = rats subjected to ischemic/reperfusion injury (2 h MCA occlusion), within 30 minutes, FIG. 2
[5] = sham (non-stroked) rats, within 30 minutes of delivery, FIG. 1

Row | Sequence | cerebral blood flow (CBF) [1, 4] | cerebral blood flow (CBF) [1, 5] | number of vessels per field (patent microvessels) [2] | desensitization to the inhibitor ([3]; ischemic/reperfusion rats treated multiple times) | cerebral blood flow (CBF) ([3]; ischemic/reperfusion rats, repeated intraperitoneal administrations, FIG. 3) | microvascular structure (higher magnification TEM) ([2]; ischemic animals, 0.2 mg/kg at reperfusion only, FIGS. 4F, 4I, 4L)
1 | YGRKKRRQRRR [TAT, reference compound] | no effect on CBF | no effect on CBF | 1.6±0.6 vessels/field |  |  | 
2 | SFNSYELGSL [δV1-1-TAT] | increased cerebral blood flow | no change in blood flow | 3.1±0.6 vessels/field | did not become desensitized | further increased blood flow | significantly less damaged
